Test results taken from patent US20160324884A1, “TREATMENT OF DIABETES WITH PENTACYCLIC TRITERPENOID SAPONIN COMPOUNDS FROM SZECHUAN MELANDIUM ROOT” (priority 2013, published 2016).
“Also recorded” adds a separate entry of the source.

Key:
[1] = system: KK^Ay mice; test: Effects of Wacao saponins on glycemia in KK^Ay T2DM mice (Example 2); assay type: in vivo; conditions: for glycemia (fasting tail blood glucose), hypoglycemic activity: after 1 week; for anti-hyperglycemia effect, compounds compared with each other: 2.0 mg/kg BW Sc, 2 weeks, ranking
Text: 80 male KK^Ay mice (12 weeks of age, License NO. SCXK (BJ) 2009-0015, Beijing Huafukang Biology Technology Co. Ltd.) and 10 male normal C57BL/6 mice (12 weeks of age, License NO. SCXK (BJ) 2009-0015, Beijing Huafukang Biology Technology Co. Ltd.) were adaptively bred for one week, and then used in the pharmacological experiment.
The animals were housed individually in wood-chip-bedded plastic cages. Germ-free and high-fat diets (Beijing Huafukang Biology Technology Co. Ltd.) were used to feed the KK^Ay mice, and the standard laboratory chows were used to feed normal C57BL/6 mice. All the animals had free access to food and water.
80 KK^Ay mice were adaptively bred for 1 week, and then randomly assigned into 8 groups: Model group, Compound (1) group, Compound (2) group, Compound (3) group, Compound (4) group, Compound (7) group, Compound (8) group and metformin group, 10 mice per group. 10 normal C57BL/6 mice were used as the control group. KK^Ay mice were fed with the high-fat diet, and the control group was fed with the normal control diet. The control and model groups were hypodermically injected with sterile water, 6 medicated groups were hypodermically injected with 6 kinds of Wacao saponins, the Compounds (1), (2), (3), (4), (7) and (8), and the positive group (metformin group) was irrigated per oral. All groups were administrated at 9 am for 2 weeks. The administrating volume is 10 ml/kg BW and the administration dosage is shown in Table3.
All mice of the fasting tail blood glucose level were measured weekly using One Touch ULTRA Glucometer (Life Scan Johnson and Johnson, USA).
Each compound of Wacao saponins was dissolved into sterile water and sterilized with filtration for Sc. The metformin was dissolved into sterile water for lg. The control and model group mice were injected with sterile water, Sc. All the animals were treated at 9 am for 2 weeks.
Overnight fasting tail blood glucose level was measured weekly using One Touch ULTRA Glucometer and measured for twice.
Each group was administrated for 2 weeks (14 days) and then the experiment was terminated.
Results are expressed as means±SD. Statistical analysis were analyzed by using SPSS 10.0 software. Data were evaluated with analysis of variance.

[2] = system: KK^Ay mice; test: Glycemia in KK^Ay mice during treatment and after withdrawal (Example 3); assay type: in vivo; conditions: for descending rates of blood glucose: T2DM mice, 2 mg/kg, two weeks after subcutaneous injection
Text: (§1) 60 male KK^Ay mice (12 weeks of age, License NO. SCXK (BJ) 2009-0015, Beijing Huafukang Biology Technology Co. Ltd.) and 10 normal male C57BL/6 mice (12 weeks of age, License NO. SCXK (BJ) 2009-0015, Beijing Huafukang Biology Technology Co. Ltd.) were adaptively bred for one week, and then used in the following experiment.
(§2) 60 KK^Ay mice were adaptively bred for 1 week, and then randomly assigned into 6 groups: Model group, Compound (1) group, Compound (2) group, Compound (3) group, Compound (4) group, and metformin group, 10 mice per group. 10 normal C57BL/6 mice were used for the control group. KK^Ay mice were in a high-fat diet, and the control normal mice were in a normal control diet. The control and model groups were hypodermically injected with sterile water, the 6 medicated groups mice were subcutaneously injected with […] Wacao saponins, (Compounds (1), (2), (3) and (4)) respectively, and the positive group was administered metformin by gavage. All mice were administrated at 9 am for 2 weeks and the administration volume is 10 ml/kg BW.
(§3) Compound (1), (2), (3) and (4) were respectively dissolved into sterile water, and sterilized with filtration for Sc. to the medication groups. The metformin was dissolved into sterile water for lg. to the positive control group. Control and model groups animals were injected with sterile water (10 ml/kg BW), Sc. All the animals were treated daily at 9 am for 2 weeks (14 days).
(§4) Blood detection: Blood glucose was measured weekly. Overnight fasting glycemia level was measured with One Touch ULTRA Glucometer for the tail blood test. At the end of the experiment, blood serum was collected for measuring levels of fasting blood glucose and insulin, and the insulin sensitivity index (ISI) was calculated. At the same time, hepatic tissues and skeletal muscles of mice were taken out to determine levels of hepatic and muscle glycogen by detection kits.
Termination of the experiment After administrating mice for 2 weeks (14 days), the experiment was terminated.
This experiment is to observe the anti-hyperglycemia effects of Wacao saponins on KK^Ay mice during and after the period of drug treatment, respectively.

[3] = system: KK^Ay mice; test: Hepatic and muscle glycogen in KK^Ay mice (Example 3); assay type: in vivo; conditions: 2.0 mg/kg Sc, after 2 weeks, vs model group
Text: as §2
(§5) The body weight, food and water intake of each mouse was measured and recorded weekly throughout the course of the experiment. At the end of the experiment, collected the blood and separated serum, fasting blood glucose, insulin levels and insulin sensitivity index (ISI) were measured or calculated in each group. Liver, skeletal muscles of mice in each group were taken and weighed for detecting glycogen levels of the hepatic and muscles after mice being killed.
as §3, §4

[4] = system: normal ICR mice; test: Glycemia in normal ICR mice (Example 4); assay type: in vivo; conditions: 2.0 mg/kg Sc, after 2 weeks, vs control group
Text: 40 male ICR mice (20-22g, License NO. SCXK (BJ) 2011-0004, Beijing SPF Experimental Animal Technology Co. Ltd.) were adaptively bred for one week, and then used in the following experiment.
Animals were housed individually in wood-chip-bedded plastic cages and fed the standard laboratory chow. All the animals had ad libitum access to food and water.
40 ICR mice were adaptively bred for 1 week, and then randomly assigned into 4 groups: Model, Compound (1), Compound (2) and metformin group, 10 mice per group. All the animals were fed with normal food. Mice in the control group were hypodermically injected with sterile water. The treated groups were subcutaneously injected with Compounds (1) and (2), respectively. And the positive group was administrated metformin by gavage. All the animals were administrated at 9 am for 2 weeks, and the dose volume is 10 ml/kg BW.
Compound (1) and (2) were respectively dissolved into sterile water, and sterilized with filtration for Sc. The metformin was dissolved into sterile water for lg. to the positive control group. Mice in the control group were injected with sterile water (10 ml/kg BW), Sc. All the animals were treated at 9 am for 2 weeks (14 days).
Blood detection: Blood glucose was measured weekly. Overnight fasting glycemia was measured by One Touch ULTRA Glucometer (LifeScan Johnson and Johnson, USA) for the tail blood test.
End of the experiment: After mice being administrated for 2 weeks (14 days), the experiment was terminated.

[5] = system: T2DM rats; test: Fasting glycemia in T2DM model rats (high-fat emulsion + STZ, Example 5); assay type: in vivo, SD rats
Text: 50 male SD rats (180-200 g, License NO. SCXK (BJ) 2011-0004, Beijing SPF Experimental Animal Technology Co. Ltd.) were adaptively bred for 1 week, and then used in the pharmacological experiment.
Animals were housed individually in wood-chip-bedded plastic cages and fed a standard laboratory chow. All the animals had ad libitum access to food and water.
(§6) 50 SD rats were adaptively bred for 1 week, and then randomly assigned into 5 groups: The control group, model group, Compound (1) group, Compound (2) group and glucobay group (the positive group), 10 rats per group. All the animals were in a standard laboratory diet. Control and model group animals were hypodermically injected with sterile water, test compound treatment groups were subcutaneously injected with the Compounds (1) and (2), and the positive group was administrated glucobay solution by gavage. All the animals were administrated at 9 am for 2 weeks, and the dose volume is 10 ml/kg BW.
(§7) The Compounds (1) and (2) were dissolved into sterile water, and sterilized with filtration, Sc. Glucobay was dissolved into sterile water, lg. Animals in the control and model groups were injected with sterile water (10 ml/kg BW), Sc. All the animals were treated at 9 am for 2 weeks (14 days).
All rats except the control group were administrated intragastrically with the high-fat emulsion (10 ml/kg) and weighed the body weight weekly. After weeks of administration, rats were intraperitoneally injected with streptozotocin (STZ, dissolved in citric acid-citrate sodium solution, pH 4.2, freshly prepared and used instantly, and store away from light) (30mg/kg). 4 days later, blood glucose level in rats was measured by tail blood test. Diabetes was defined as fasting blood glucose level>11.1 mmol/Lin in this experiment.
The blood glucose level was measured before and after administration of the treatment compounds for 2 weeks, respectively. The animals were fasted overnight and tail blood samples were taken. Fasting glycemia was measured by using One Touch ULTRA Glucometer or kits.

[6] = system: T2DM rats; test: Glycosylated serum protein (GSP) and liver and muscle glycogen in T2DM rats (Example 5); assay type: in vivo, SD rats; conditions: 4.0 mg/kg Sc vs glucobay 20 mg/kg lg
Text: as §6, §7
All rats except the control group were administrated intragastrically with the high-fat emulsion (10 ml/kg) and weighed the body weight weekly. After weeks of administration, rats were intraperitoneally injected with streptozotocin (STZ, dissolved in citric acid-citrate sodium solution, pH 4.2, freshly prepared and used instantly, and store away from light) (30mg/kg). 4 days later, blood glucose level in rats was measured by tail blood test. […]

[7] = system: KK^Ay mice; test: Body weight, food and water intake in KK^Ay mice (Example 3); assay type: in vivo; conditions: after 1 week, compounds 2.0 mg/kg Sc, metformin 500 mg/kg lg, vs model group
Text: as §1
The animals were housed individually in wood-chip-bedded plastic cages. Germ-free and high-fat diets (Beijing Huafukang Biology Technology Co. Ltd.) were used to feed the KK^Ay mice. All the animals had free access to food and water.
as §2, §5, §3
Measurement of food and water intake: 24 hours' food and water intake were measured by gravimetry once a week. It should be paid attention to recycling leakage of small forage into the feed box to ensure the accuracy of food intake.
Determination of body weight: The body weight of mice was measured and recorded once a week.
Results are shown as means±SD. Statistical analysis data were analyzed by using SPSS 10.0 software. Data were evaluated with analysis of variance.

[8] = 2.0 mg/kg BW Sc daily, vs model group

Compound	glycemia (fasting tail blood glucose), hypoglycemic activity [1, 8]	anti-hyperglycemia effect, compounds compared with each other [1]	descending rates of blood glucose [2]	muscle glycogen level [3]	also measured
CC(=O)OC1C(OC(=O)/C=C\c2ccc(C)cc2)C(C)OC(OC(=O)[C@@H]2CC(C)(C)C[C@@H]3C2[C@H](O)C[C@]2(C)C3C=C[C@@H]3[C@@]4(C)CC[C@H](OC5OC(C(=O)O)C(O)C(OC6OCC(O)C(O)C6O)C5OC5OC(CO)C(O)C(O)C5O)[C@@](C)(C=O)[C@@H]4CC[C@]32C)C1OC1OC(C)C(O)C(O)C1O (stereo partly shown) [Compound (2), sinocrassuloside VII]	then followed by Compound (2), Compound (4), Compound (3) and Compound (7)	strongest anti-hyperglycemia effect	60%	stronger efficacy in raising levels muscle glycogen	glycemia level [4]: decreased much obviously; anti-hyperglycemia efficacy compared with glucobay ([5]; 4.0 mg/kg Sc vs glucobay 20 mg/kg lg, 2 weeks): stronger than glucobay; glycemia level ([5]; 4.0 mg/kg Sc, after 2 weeks, vs model group): significantly decreased; effect on glycogen levels and GSP levels compared with glucobay [6]: better effect on up-regulating of glycogen levels and down-regulating of GSP levels; also recorded: superior to that of glucobay; also recorded: stronger than glucobay
COC(=O)C1OC(O[C@H]2CC[C@]3(C)[C@H]4C=CC5[C@@H]6CC(C)(C)C[C@@H](C(=O)OC7OC(C)C(OC(=O)/C=C/c8ccc(C)cc8)C(OC(C)=O)C7OC7OC(C)C(O)C(O)C7O)C6[C@H](O)C[C@@]5(C)[C@]4(C)CC[C@H]3[C@]2(C)C=O)C(OC2CC(CO)C(O)C(O)C2O)C(OC2OCC(O)C(O)C2O)C1O (stereo partly shown) [Compound (3), sinocrassuloside VIII]	then followed by Compound (2), Compound (4), Compound (3) and Compound (7)	followed by Compound (3) and (4) (cis-trans-isomers), and Compound (7)	60%	weaker efficacy in raising level of muscle glycogen which had no statistical significant difference compared with that of the model group	
CN(C)C(=N)N=C(N)N [metformin, reference compound]					food intake [7]: decreased obviously; glycemic level after drug withdrawal ([2]; KK^Ay mice, 2 weeks after stopping 2-week medication, vs model (untreated) group): rebounded to a high level which showed no significant difference compared with that of the model group
sinocrassuloside XII [Compound (7)]	then followed by Compound (2), Compound (4), Compound (3) and Compound (7)	followed by Compound (3) and (4) (cis-trans-isomers), and Compound (7)			
sinocrassuloside XIII [Compound (8)]		no significant effect of anti-hyperglycemia compared with that of the other compounds			glycemia (fasting tail blood glucose), hypoglycemic activity ([1]; 2.0 mg/kg BW Sc daily, vs model group, 2 mg/kg): weakest hypoglycemic activity which has no significant difference compared with that of the model group; also recorded: only the trend of anti-hyperglycemia activity, but showed no statistical difference; glycemia (fasting tail blood glucose) ([1]; 2.0 mg/kg BW Sc daily, after 2 weeks, vs model group): Significant differences appeared
